Assay results: patent US20260315604A1, “OTUB1 Small-Molecule Binders and OTUB1-recruiting Deubiquitinase-targeting Chimeras (DUBTACs)” (ICAHN SCHOOL OF MEDICINE AT MOUNT SINAI, priority 2023, published 2026)

biological target: T1, Human OTUB1 wild-type (Homo sapiens, UniProt Q96FW1); experiment: Covalent modification of OTUB1 (adduct formation), mass spectrometry-based assay (OTUB1 covalent binders; selected CFTR or cGAS based bivalent compounds); type: binding; conditions: covalent adduct formation with OTUB1 protein
T1 construct: His tag (N); made in house; host or cells: E. coli BL21-CodonPlus (DE3)-RIPIL
T1 sequence (Q96FW1 whole entry): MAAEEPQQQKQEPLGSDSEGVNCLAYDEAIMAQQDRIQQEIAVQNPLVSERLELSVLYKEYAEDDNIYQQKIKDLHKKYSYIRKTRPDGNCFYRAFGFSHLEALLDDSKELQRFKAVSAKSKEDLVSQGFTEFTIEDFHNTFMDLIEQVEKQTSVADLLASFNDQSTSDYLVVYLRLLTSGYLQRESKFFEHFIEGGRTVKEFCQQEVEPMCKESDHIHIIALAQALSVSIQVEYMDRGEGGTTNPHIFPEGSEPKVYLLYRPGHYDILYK
Protocol: OTUB1 covalent binders were tested for their ability to form the covalent adduct with OTUB1 protein using a mass-spectrometry based assay.
Example 389. Assessment of the Covalent Modification of OTUB1 Protein by Selected OTUB1 Covalent Binders Using a Mass Spectrometry-Based Assay (FIG. 1)
OTUB1 protein (10 μM) was incubated with selecting compounds (2500 μM) at RT for 1 h. The adduct was qualified by mass spectrometry-based assays.
Example 398. Assessment of the Covalent Modification of OTUB1 Protein by Selected CFTR Based Bivalent Compounds Using Mass Spectrometry-Based Assay (FIG. 10)
OTUB1 protein (10 μM) was incubated with selecting bivalent compounds (2500 μM) at RT for 1 h. The adduct was qualified by mass spectrometry-based assays.
Human OTUB1 wild-type (NM_017670.3) and C23S mutation genes were optimized based on the codon preference of E. coli, synthesized and cloned into pET15b vector with a N-terminal His tag by Genscript, respectively. The plasmid was transferred to BL21-CodonPlus (DE3)-RIPIL Competent Cell (230280, Agilent Technologies) and the recombinant protein was induced expressed by 0.5 mM IPTG at 16° C. with shaking 200 rpm for 18 h. Induced cells were harvested by centrifugation and resuspended in cold lysis buffer (50 mM Tris-H—Cl pH 7.5, 150 mM NaCl, 25 mM imidazole pH 7.5, 0.01% IGEPAL, 5% Glycerol) in the presence of Pierce Protease Inhibitor tablets (PIA32963, Fisher Scientific) and 2 mM TCEP pH 7.5.
The cells were lysed by sonication, clarified by centrifugation, and the filtered supernatant loaded onto a 5 ml HisTrap HP affinity column (17524802, Cytiva) in AKTA system. The His-recombinant protein bound to column was washed using buffer A (50 mM Tris-HCl pH 7.5, 150 mM NaCl, 25 mM imidazole pH 7.5, 0.01% IGEPAL, 5% Glycerol) and eluted with buffer B (50 mM Tris-HCl pH 7.5, 150 mM NaCl, 250 mM imidazole pH 7.5, 0.01% IGEPAL, 5% Glycerol). The eluted fractions containing OTUB1 protein were concentrated and subjected to size exclusion chromatography using a 320 mL HiLoad 26/600 Superdex 200 pg column (28989336, Cytiva) under the buffer condition ([…] Tris-HCl pH 7.5, 150 mM NaCl, and 2 mM TCEP pH 7.5). The eluted fractions containing OTUB1 protein were concentrated, divided into aliquots and stored at −80° C. freezer for further usage.
Quality control of the OTUB1 proteins was performed by SDS-PAGE, Nanodrop and mass spectrometry.
Mass Spectrometry-Based Analysis of OTUB1-Covalent Ligand Adducts
To screen the covalent ligands, recombinant OTUB1 protein (10 μM) was respectively incubated with DMSO, EN523 or seven novel ligands (2500 μM) in reaction buffer (50 mM Tris-HCl pH 7.5, 150 mM NaCl, and 0.5 mM TCEP pH 7.5) for 1 h at room temperature.
Then, the total 500 μL reaction solution was exchanged and concentrated to 50 μL 50 mM ammonium bicarbonate with a 10 kDa MWCO centrifugal filter unit (UFC901024, Millipore) and diluted in MS buffer (30% ACN, 0.2% FA) to a final concentration of […]. Mass spectrometry detection was performed by an Agilent LC/MSD Time-Of-Flight (TOF) mass spectrometer (Agilent Technologies) equipped with an electrospray ion source. The data was analyzed by TOF Protein Confirmation Software. All experiments were performed in duplicate.

Compared with `Cc1ccc(N2CCN(C(=O)/C=C/CN3CCCCC3)CC2=O)s1` [XS165-170, (E)-1-(5-methylthiophen-2-yl)-4-(4-(piperidin-1-yl)but-2-enoyl)piperazin-2-one], `Cc1ccc(N2CCCN(C(=O)/C=C/CN(C)C)CC2=O)s1` [XS175-120, (E)-4-(4-(dimethylamino)but-2-enoyl)-1-(5-methylthiophen-2-yl)-1,4-diazepan-2-one] is lower in “% of OTUB1 modified” value: 70% for the first, 47% for the second.

First: Cc1ccc(N2CCN(C(=O)/C(C#N)=C/C(C)(C)C)CC2=O)s1 [XS165-177, (E)-4,4-dimethyl-2-(4-(5-methylthiophen-2-yl)-3-oxopiperazine-1-carbonyl)pent-2-enenitrile]
Second: CC(C)c1ccc(N2CCN(C(=O)/C=C/CN(C)C)CC2=O)s1 [XS175-64, (E)-4-(4-(dimethylamino)but-2-enoyl)-1-(5-isopropylthiophen-2-yl)piperazin-2-one]
The “% of OTUB1 modified” value of the first is lower: 10% for the first, 95% for the second.

Going from `Cc1cc(C)c(N2CCN(C(=O)/C=C/CN(C)C)CC2=O)s1` [XS175-45, (E)-4-(4-(dimethylamino)but-2-enoyl)-1-(3,5-dimethylthiophen-2-yl)piperazin-2-one] to `Cc1cc(N2CCN(C(=O)/C=C/CN(C)C)CC2=O)sc1C` [XS175-70, (E)-4-(4-(dimethylamino)but-2-enoyl)-1-(4,5-dimethylthiophen-2-yl)piperazin-2-one], the “% of OTUB1 modified” value rises from 45% to 90%.

Going from `Cc1csc(N2CCN(C(=O)/C=C/CN(C)C)CC2=O)c1` [XS175-46, (E)-4-(4-(dimethylamino)but-2-enoyl)-1-(4-methylthiophen-2-yl)piperazin-2-one] to `Cc1cc(N2CCN(C(=O)/C=C/CN(C)C)CC2=O)cs1` [XS175-59, (E)-4-(4-(dimethylamino)but-2-enoyl)-1-(5-methylthiophen-3-yl)piperazin-2-one], the “% of OTUB1 modified” value falls from 90% to 80%.

First: CCc1ccc(N2CCN(C(=O)/C=C/CN(C)C)CC2=O)s1 [XS175-63, (E)-4-(4-(dimethylamino)but-2-enoyl)-1-(5-ethylthiophen-2-yl)piperazin-2-one]
Second: Cc1sccc1N1CCN(C(=O)/C=C/CN(C)C)CC1=O [XS175-67, (E)-4-(4-(dimethylamino)but-2-enoyl)-1-(2-methylthiophen-3-yl)piperazin-2-one]
The “% of OTUB1 modified” value of the first is higher: 75% for the first, 60% for the second.

Going from `Cc1ccsc1N1CCN(C(=O)/C=C/CN(C)C)CC1=O` [XS175-68, (E)-4-(4-(dimethylamino)but-2-enoyl)-1-(3-methylthiophen-2-yl)piperazin-2-one] to `CN(C)C/C=C/C(=O)N1CCN(c2cc3ccccc3s2)C(=O)C1` [XS175-179, (E)-1-(benzo[b]thiophen-2-yl)-4-(4-(dimethylamino)but-2-enoyl)piperazin-2-one], the “% of OTUB1 modified” value rises from 70% to 100%.

Going from `Cc1ccc(NC(=O)C2CN(C(=O)/C=C/CN(C)C)C2)s1` [XS175-71, (E)-1-(4-(dimethylamino)but-2-enoyl)-N-(5-methylthiophen-2-yl)azetidine-3-carboxamide] to `Cc1ccc(NC(=O)C2CCN(C(=O)/C=C/CN(C)C)C2)s1` (stereo not drawn) [XS175-133, (E)-1-(4-(dimethylamino)but-2-enoyl)-N-(5-methylthiophen-2-yl)pyrrolidine-3-carboxamide], the “% of OTUB1 modified” value falls from 40% to 2%.

`Cc1ccc(NC(=O)C2CN(C(=O)CCl)C2)s1` [XS175-126, 1-(2-chloroacetyl)-N-(5-methylthiophen-2-yl)azetidine-3-carboxamide] and `Cc1ccc(NC(=O)C2CCN(C(=O)CCl)CC2)s1` [XS185-4, 1-(2-chloroacetyl)-N-(5-methylthiophen-2-yl)piperidine-4-carboxamide] are the same in “% of OTUB1 modified” value: 100% for the first, 100% for the second.

Going from `CC(C)c1ccc(NC(=O)C2CN(C(=O)/C=C/CN(C)C)C2)s1` [XS175-143, (E)-1-(4-(dimethylamino)but-2-enoyl)-N-(5-isopropylthiophen-2-yl)azetidine-3-carboxamide] to `CC(C)c1ccc(NC(=O)C2CCN(C(=O)/C=C/CN(C)C)C2)s1` (stereo not drawn) [XS175-180, (E)-1-(4-(dimethylamino)but-2-enoyl)-N-(5-isopropylthiophen-2-yl)pyrrolidine-3-carboxamide], the “% of OTUB1 modified” value falls from 45% to 8%.

First: Cc1ccc(NC(=O)C2CCCCN2C(=O)/C=C/CN(C)C)s1 (stereo not drawn) [XS175-148, (E)-1-(4-(dimethylamino)but-2-enoyl)-N-(5-methylthiophen-2-yl)piperidine-2-carboxamide]
Second: Cc1ccc(NC(=O)C2CC3(C2)CN(C(=O)/C=C/CN(C)C)C3)s1 [XS175-149, (E)-2-(4-(dimethylamino)but-2-enoyl)-N-(5-methylthiophen-2-yl)-2-azaspiro[3.3]heptane-6-carboxamide]
The “% of OTUB1 modified” value of the first is higher: 20% for the first, 18% for the second.

First: CN(C)C/C=C/C(=O)N1CCN(c2ccc(-c3ccccc3)s2)C(=O)C1 [XS175-158, (E)-4-(4-(dimethylamino)but-2-enoyl)-1-(5-phenylthiophen-2-yl)piperazin-2-one]
Second: CN(C)C/C=C/C(=O)N1CCN(c2c[nH]c3ccccc23)C(=O)C1 [XS185-43, (E)-4-(4-(dimethylamino)but-2-enoyl)-1-(1H-indol-3-yl)piperazin-2-one]
The “% of OTUB1 modified” value of the first is lower: 45% for the first, 58% for the second.

`Cc1csc(NC(=O)C2CCN(C(=O)/C=C/CN(C)C)CC2)c1` [XS175-173, (E)-1-(4-(dimethylamino)but-2-enoyl)-N-(4-methylthiophen-2-yl)piperidine-4-carboxamide] and `CC(C)c1ccc(NC(=O)C2CCN(C(=O)/C=C/CN(C)C)CC2)s1` [XS175-178, (E)-1-(4-(dimethylamino)but-2-enoyl)-N-(5-isopropylthiophen-2-yl)piperidine-4-carboxamide] are the same in “% of OTUB1 modified” value: 3% for the first, 3% for the second.

First: CN(C)C/C=C/C(=O)N1CCN(c2cc3c(s2)CCCC3)C(=O)C1 [XS175-186, (E)-4-(4-(dimethylamino)but-2-enoyl)-1-(4,5,6,7-tetrahydrobenzo[b]thiophen-2-yl)piperazin-2-one]
Second: Cc1ccc(N2CC3(CN(C(=O)/C=C/CN(C)C)C3)C2)s1 [XS185-3, (E)-4-(dimethylamino)-1-(6-(5-methylthiophen-2-yl)-2,6-diazaspiro[3.3]heptan-2-yl)but-2-en-1-one]
The “% of OTUB1 modified” value of the first is higher: 100% for the first, 35% for the second.

`Cc1ccc(NC(=O)C2CC3(C2)CN(C(=O)CCl)C3)s1` [XS185-5, 2-(2-chloroacetyl)-N-(5-methylthiophen-2-yl)-2-azaspiro[3.3]heptane-6-carboxamide] and `CC(C)c1ccc(NC(=O)C2CCN(C(=O)CCl)CC2)s1` [XS185-6, 1-(2-chloroacetyl)-N-(5-isopropylthiophen-2-yl)piperidine-4-carboxamide] are the same in “% of OTUB1 modified” value: 100% for the first, 100% for the second.

In the case of `Cc1ccc(N2CCN(C(=O)/C=C/CN(C)C)CC2)s1` [XS165-172, (E)-4-(dimethylamino)-1-(4-(5-methylthiophen-2-yl)piperazin-1-yl)but-2-en-1-one], the “% of OTUB1 modified” value is reported as under 1%.
With `Cc1ccc(N(C)C(=O)CCN(C)C(=O)/C=C/CN(C)C)s1` [XS175-160, (E)-4-(dimethylamino)-N-methyl-N-(3-(methyl(5-methylthiophen-2-yl)amino)-3-oxopropyl)but-2-enamide] the “% of OTUB1 modified” value was under 1%.
